Results from patent publication US12139555B2, “Peptides and compositions for inhibiting hair growth” (RODAN & FIELDS, LLC, priority 2019, dated 2024).
Ends that are not written are not given here. Peptide text beside a SMILES is read from it.

Tests used:
Type in all cases: cell-based, human
[1] = system: μHF; test: Cytotoxicity testing on μHF, viability by ATP (CellTiter Glo); settings: for Mean ATP content in μHF after 24 H treatment: N = 5 μHF, CN 1306.1; for ATP content relative to threshold (50% of negative control): 1-10-100 ng/ml, 24 h
Protocol: Cytotoxicity testing has been performed on μHF at day 3 in order to select the testing concentration of peptides for the following screening assays.
Treatments: Negative control: 1 (not treated), Positive control: FGF18 100 ng/ml, Treatments: 39 (13 peptides, 3 concentrations each: 1-10-100 ng/ml), Biological replicates: 5 μHF for each treatment, Time-point: 1 (after 24 H of treatment), Read-out parameters: Viability by ATP
The test items have been tested at 3 concentrations/each for their cytotoxicity potential after 24 h exposure on μHF. FGF18 100 ng/ml have been used as positive control. The toxicity has been evaluated by ATP release on n=5 μHF.
The μHF microtissue were reconstructed using the hanging drop method into GRAVITY^PLUS plates from InSphero (Switzerland) using fibroblasts and keratinocytes from human origin. The MTs were Transferred in GRAVITYTRAP for treatments and manipulation. Culture conditions: incubator at 37° C., 5% CO2, saturated humidity with adequate culture medium. The Fibroblast batch and keratinocytes has been tested for the absence of HIV, Hepatitis B, Hepatitis C, Mycoplasma. The maintenance medium has been tested for sterility.
The kit CellTiter Glo® (Promega) Luminescent cell Viability Assay is used for Adenosine-5- triphosphate (ATP) quantification. The assay procedures involves adding the single reagent directly to MTs cultured in medium. The cell lysis and the generation of a luminescent signal is proportional to the amount of ATP present. ATP measurements have been performed on 5 biological replicates and mean and standard deviation have been calculated. The threshold of 50% viability in comparison to negative control have been used as cut off; the max concentration possible over threshold has been used for the efficacy screening test.
For the selection of test concentrations of each peptide, the 50% ATP content in comparison with negative (not treated) control has been selected as threshold. The higher concentration over the selected threshold has been used for efficacy screening test for peptides form P1 to P9.

[2] = system: WNT5B; test: Regressive μHF efficacy screening: WNT5B gene expression by RTqPCR; settings: FGF18 100 ng/ml, after TGFβ1 10 ng/ml 72H
Description: (§1) To assess the biological activity of the identified set of 13 peptides and their capability to maintain quiescence state, the Vitroscreen μHF standard model has been adapted pushing it in a regressive state (catagen-like) by the application of TGFβ1 to reduce the expression of genes linked to active growth phase (anagen) and to make the model more responsive to FGF18 as quiescence signal.
(§2) In particular, in this regressive model, the application of TGFβ1 to 72H induces a catagen-like status with the down-regulation of FGF7 anagen gene and CCND1 as proliferation marker. […]
(§3) After the selection of test concentrations of the peptides, efficacy was performed on regressing μHF (TGFβ1 treated) at day 5 in order to evaluate the further efficacy of peptides to decrease the gene expression of proliferation (CCND1) and anagen marker (FGF7). The potential down-regulation of epithelial growth regulator WNT5B has been evaluated as an optional parameter.
(§4) Treatments: Negative control: 1 (not treated), Regression inducer: TGFβ1 10 ng/ml, Positive control: FGF18 10-100 ng/ml, Treatments: 13 peptides (1 concentration each), Biological replicates: 1 biological replicates from pool of 20 μHF, Time-point: after 72H of TGFβ1 induction followed by 24H of peptide or FGF18 application, Read-out parameters: 1 Proliferation gene (CCND1) by RTqPCR, 2 anagen regulators (FGF7, WNT5B) by RTqPCR […]

[3] = system: regressive μHF; test: Overall efficacy in mimicking FGF18 in regressive μHF (CCND1, FGF7, WNT5B together); settings: FGF18 10-100 ng/ml, after TGFβ1
Description: as §1, §2
The μHF model has been used for a screening study with the aim to characterize the 13 peptides designed on the basis of FGF18 structure in order to mimic its biological function in retarding hair growth. The following test items have been evaluated after the selection of test concentration in a preliminary tox assay.
as §3, with “parameter. […]” for “parameter.”

[4] = system: CCND1; test: Regressive μHF efficacy screening: CCND1 gene expression by RTqPCR
Description: as §1, §2, §3, §4

[5] = system: FGF7; test: Regressive μHF efficacy screening: FGF7 gene expression by RTqPCR
Description: as §1, §2, §3, §4

[6] = FGF18 100 ng/ml, after TGFβ1 10 ng/ml 72H

Molecule | Mean ATP content in μHF after 24 H treatment ([1]; 1 ng/ml) [nM] | Mean ATP content in μHF after 24 H treatment ([1]; 10 ng/ml) [nM] | Mean ATP content in μHF after 24 H treatment ([1]; 100 ng/ml) [nM] | further results
CC(C)C[C@H](NC(=O)[C@H](CCC(N)=O)NC(=O)[C@@H](N)CCCCN)C(=O)N[C@@H](CCCNC(=N)N)C(=O)O [Peptide P1, KQLR] (H-KQLR-OH; N-terminus and C-terminus assumed) | 1876.5 | 2007.2 | 1903.1 | 
CC(C)C[C@H](NC(=O)[C@H](CCCNC(=N)N)NC(=O)[C@@H](N)CC(=O)O)C(=O)N[C@@H](CCCCN)C(=O)O [Peptide P3, DRLK] (H-DRLK-OH; N-terminus and C-terminus assumed) | 1026.2 | 924.8 | 1631.2 | 
C[C@@H](O)[C@H](NC(=O)[C@H](CCCCN)NC(=O)[C@@H](N)CCC(=O)O)C(=O)N[C@@H](CC(=O)O)C(=O)O [Peptide P4, EKTD] (H-EKTD-OH; N-terminus and C-terminus assumed) | 1567.7 | 1715.2 | 1597.4 | 
NCCCC[C@H](NC(=O)[C@@H](N)CCC(=O)O)C(=O)N[C@@H](CC(=O)O)C(=O)N[C@@H](CC(=O)O)C(=O)O [Peptide P5, EKDD] (H-EKDD-OH; N-terminus and C-terminus assumed) | 1263.3 | 1108.9 | 1255.5 | 
C[C@@H](O)[C@H](NC(=O)[C@H](CCCNC(=N)N)NC(=O)[C@@H](N)CCCCN)C(=O)NCC(=O)O [Peptide P6, KRTG] (H-KRTG-OH; N-terminus and C-terminus assumed) | 1122.0 | 1116.0 | 1313.3 | 
NCCCC[C@H](NC(=O)[C@@H](N)CCC(=O)O)C(=O)N[C@@H](CC(N)=O)C(=O)N[C@@H](CC(=O)O)C(=O)O [Peptide P7, EKND] (H-EKND-OH; N-terminus and C-terminus assumed) | 1275.4 | 1243.9 | 1258.8 | 
N=C(N)NCCC[C@H](NC(=O)[C@@H](N)CC(=O)O)C(=O)N[C@@H](CC(=O)O)C(=O)N[C@@H](CCC(=O)O)C(=O)O [Peptide P8, DRDE] (H-DRDE-OH; N-terminus and C-terminus assumed) | 1148.5 | 1155.5 | 1229.3 | 
NCCCC[C@H](NC(=O)[C@@H](N)CC(=O)O)C(=O)N[C@@H](CO)C(=O)N[C@@H](CCC(=O)O)C(=O)O [Peptide P9, DKSE] (H-DKSE-OH; N-terminus and C-terminus assumed) | 1521.4 | 1273.6 | 1469.4 | 
CC(C)[C@H](NC(=O)[C@H](CCCNC(=N)N)NC(=O)[C@@H](N)CC(=O)O)C(=O)N[C@@H](CCC(=O)O)C(=O)O [Peptide P10, DRVE] (H-DRVE-OH; N-terminus and C-terminus assumed) | 1727.8 | 1706.1 | 1329.1 | ATP content relative to threshold (50% of negative control) [1]: over the threshold
C[C@@H](O)[C@H](NC(=O)[C@H](CCCNC(=N)N)NC(=O)[C@@H](N)CC(=O)O)C(=O)N[C@@H](CC(=O)O)C(=O)O [Peptide P11, DRTD] (H-DRTD-OH; N-terminus and C-terminus assumed) | 463.1 | 447.0 | 149.0 | ATP content relative to threshold (50% of negative control) [1]: under-threshold
CC[C@H](C)[C@H](N)C(=O)N[C@@H](CCC(=O)O)C(=O)N[C@@H](CCCCN)C(=O)N[C@H](C(=O)O)C(C)C [Peptide P12, IEKV] (H-IEKV-OH; N-terminus and C-terminus assumed) | 435.7 | 562.8 | 370.0 | ATP content relative to threshold (50% of negative control) [1]: under-threshold
CC(C)[C@H](NC(=O)[C@H](CCCNC(=N)N)NC(=O)[C@@H](N)CC(=O)O)C(=O)O [Peptide P13, DRV] (H-Asp-Arg-Val-OH) | 576.0 | 516.6 | 404.1 | ATP content relative to threshold (50% of negative control) [1]: under-threshold
Fibroblast Growth Factor 18 [FGF18] |  |  | 1560.3 | Effect on WNT5b expression after TGFβ1 [2]: decrease; Effect in enhancing the down regulation of anagen markers [3]: dose-dependent effect; Effect on CCND1 expression after TGFβ1 [4, 6]: further down-regulation; Effect on FGF7 expression after TGFβ1 [5, 6]: further down-regulation
RTGQYK [Peptide P2, RTGQYK] | 1522.4 | 1838.6 | 1687.8 | 
Transforming Growth Factor Beta 1 [TGFβ1] |  |  |  | Effect on expression of CCND1 versus CN ([4]; TGFβ1 10 ng/ml, 72H): reduced; Effect on expression of FGF7 versus CN ([5]; TGFβ1 10 ng/ml, 72H): reduced
